Key:
overweight dogs [1] = assay: Body weight and food intake of overweight dogs fed low-fat diets with supplemental L-carnitine; assay type: in vivo, beagle dogs; conditions: for average voluntary consumption of the diet: seven weeks of feeding; for body weight change: seven weeks ad libitum, P<0.05 from control
Source text: (§1) Thirty adult ovariohysterectomized female beagle dogs were used to study the effects of L-carnitine supplementation on weight loss. All of the animals were current on their vaccination and parasite prevention program. The dogs were housed individually in oversize pens and identified by a unique ear tattoo. Fresh water was provided ad libitum during the entire study period. Food intake was adjusted as necessary to achieve the desired weight for the study period.
Three dietary treatments were evaluated. The study consisted of three periods: weight gain, maintenance, and weight loss. During the eleven-week weight gain period, all dogs were fed a single diet Eukanuba Veterinary Diets® Nutritional Recovery Formula™ which contains 36.1 wt % protein, 26.1 wt % fat, and 2.1 wt % crude fiber) ad libitum.
(§2) At the initiation of the maintenance phase of the study (baseline or day 0), the dogs were randomized based on body weight into three dietary treatment groups of ten dogs each with a three day feed transition period starting on day 0. Each treatment group was randomly assigned to one of three low-fat diets (Table 1). The only difference between diets was the addition of 0, 50, or 100 ppm supplemental L-carnitine. No differences in the initial body weight or body condition score existed between groups.
The dogs were on 100% experimental diet on day 3 and were fed ad libitum during the seven-week maintenance phase of the study.
(§3) During the twelve-week weight loss phase of the study, the same experimental diets were offered as during the maintenance phase. However, the food intake was decreased to produce approximately 1.5 to 2.5% body weight loss per week. Exact amounts of experimental diets were fed to the dogs at approximately the same time each day, and remaining feed amounts were weighed the following day. Food intake and body weight were monitored daily and weekly, respectively. Whole body composition using the Dual Energy X-ray Absorptiometer (DEXA), and blood samples for CBC and chemistry were collected periodically during the study. Whole Body Composition by Dual Energy X-ray Absorptiometry. The dogs were scanned with a Hologic QDR-2000 Plus Dual-Energy X-Ray Absorptiometry (DEXA) bone densitometer, supported with Hologic MXA software, version 8.0. All dogs were anesthetized and placed on the Dual Energy X-ray Absorptiometry (DEXA) table in dorsal recumbency, with legs stretched caudally to avoid overlap of the legs over the body. The dogs were scanned using the Enhanced Array Whole Body software. The body composition measurements recorded consisted of surface area (cm^2), bone mineral content (BMC), bone mineral density (BMD), lean mass, fat content, percent fat, and estimated body weight. All measurements were reported in grams except for percent fat and area (cm^2). Percent lean and percent BMC were calculated from the lean mass, BMC, and estimated body weight data from the DEXA results.
A repeated measure classification analysis of variance was used to study “Treatment” and time dependent “Treatment×Time” effects (Gill and Hafs, J. Animal Sci. 33(2):331(1971)). The variables from the complete blood count, blood chemistry, body composition and body weights were studied using this analysis. All F-tests and mean separations using the Least Square Difference (LSD) used 0.05 Type 1 Error rate. […]

overweight dogs [2] = assay: Whole body composition by Dual Energy X-ray Absorptiometry (DEXA); assay type: in vivo, beagle dogs
Source text: as §1, §2, §3
The whole body composition was performed concomitantly and under anesthesia. The anesthetic regimen consisted of Atropine (0.01 mg/lb) as a pre-anesthetic, the combination Xylazine/Telazol/Torbugesic (0.8/6.7/0.13 mg/kg) as induction and Isoflurane (Aerrane, Ohmeda Pharmaceutical Products, Liberty Corner, N.J.) as a maintenance agent using a nose cone.
A repeated measure classification analysis of variance was used to study “Treatment” and time dependent “Treatment×Time” effects (Gill and Hafs, J. Animal Sci. 33(2):331(1971)). The variables from the complete blood count, blood chemistry, body composition and body weights were studied using this analysis. All F-tests and mean separations using the Least Square Difference (LSD) used 0.05 Type 1 Error rate. One degree of freedom comparisons between experimental diets B versus C (comparison 1) and A versus B and C (comparison 2) were computed for the body composition and body weight variables. Comparisons 1 and 2 form an orthogonal set. An a of 0.05 was used to test for non-zero value of the mean of the two groups defined per contract. The “Treatment×Time” interaction was investigated by computing a test for linear, quadratic, and cubic response over time for each treatment. Then a test of parallelism, equal quadric response and equal cubic response was done to test equality of trend in response among treatments. An α of 0.05 for the F-tests was used in all cases. All computations were done using SAS (statistical analysis system) software (1989).

[3] = 50 ppm supplemental carnitine, Week 0
[4] = 50 ppm supplemental carnitine, Week 7
[5] = 100 ppm supplemental carnitine, Week 0
[6] = 100 ppm supplemental carnitine, Week 7

C[N+](C)(C)C[C@H](O)CC(=O)[O-] [L-carnitine]
total weight loss per total food intake compared with no supplementation (overweight dogs [1]; 50 and 100 ppm, FIG. 7, P<0.05): greater total weight loss per total food intake
average voluntary consumption of the diet (overweight dogs [1]; 50 ppm carnitine): 1574 g/week
body weight change (overweight dogs [1]; 50 ppm supplemental carnitine in low-fat diet): −6.4%
average voluntary consumption of the diet (overweight dogs [1]; 100 ppm carnitine): 1567 g/week
body weight change (overweight dogs [1]; 100 ppm supplemental carnitine in low-fat diet): −5.7%
lean body mass compared with no supplementation (overweight dogs [2]; 50 and 100 ppm, FIG. 6): leaner body mass
body fat loss compared to no (0 ppm) supplementation (overweight dogs [2]; 50 and 100 ppm, difference day 0 to day 49, day 92, day 133 as percentage of day 0, FIG. 5): more body fat loss (P<0.05)
body fat loss compared to 0 ppm supplementation (overweight dogs [2]; 50 and 100 ppm, difference day 0 to day 49 as percentage of day 0, FIG. 4): more body fat loss (P<0.05)
BMC (bone mineral content) as percent of total body mass (overweight dogs [2]; [3]): 1.6%
Fat mass as percent of total body mass (overweight dogs [2]; [3]): 42.4%
LBM (lean body mass) as percent of total body mass (overweight dogs [2]; [3]): 56.0%
BMC (bone mineral content) as percent of total body mass (overweight dogs [2]; [4]): 1.7%
Fat mass as percent of total body mass (overweight dogs [2]; [4]): 37.8%
LBM (lean body mass) as percent of total body mass (overweight dogs [2]; [4]): 60.5%
BMC (bone mineral content) as percent of total body mass (overweight dogs [2]; [5]): 1.6%
Fat mass as percent of total body mass (overweight dogs [2]; [5]): 42.5%
LBM (lean body mass) as percent of total body mass (overweight dogs [2]; [5]): 55.9%
BMC (bone mineral content) as percent of total body mass (overweight dogs [2]; [6]): 1.6%
Fat mass as percent of total body mass (overweight dogs [2]; [6]): 38.9%
LBM (lean body mass) as percent of total body mass (overweight dogs [2]; [6]): 59.5%

Source: patent publication US20010000786A1, “Product for promoting weight loss in overweight dogs” (priority 1998, published 2001)
